Results published in patent US20100087383A1, “INT[…] INHIBITOR AND USE THEREOF” (National University Corporation Nagoya University, priority 2006, published 2010).

Assays:
[1] = tested on: Alzheimer's disease mouse model subjected to intraventricular injection of Aβ; assay: Novel object recognition test, oral administration, Alzheimer's disease mouse model subjected to intraventricular injection of Aβ25-35; type: in vivo; details: day 5 after Aβ25-35, ICR mice, FIG. 2
Procedure: (§1) An Alzheimer's disease mouse model was produced by injecting Aβ25-35 (the aggregation of which had been accelerated by 4 days of incubation at 37° C.) to mouse cerebral ventricle, following which it was used for the experimental system. ICR mice (body weight of 20-22 g (7 weeks old), purchased from Japan SLC Inc. (Shizuoka, Japan)) were divided into 4 groups (n=15). A physiological saline solution that is a solvent for Leu-Ile, Leu-Ile (1.5 μmol/Kg), or Leu-Ile (15 μmol/Kg) was administered to Alzheimer's disease mouse model groups. Then the groups were used for the experiment.
Moreover, an Leu-Ile 7.5 μmol/Kg administrated group and an Leu-Ile 75 μmol/Kg administrated group were subjected to oral administration of Leu-Ile (7.5 μmol/Kg) and Leu-Ile (75 μmol/Kg), respectively, immediately after administration of Aβ25-35. A novel object recognition test (Ennaceur et al., Behav Brain Res 80 9-25, 1996) was conducted for all groups 3 to 5 days after intraventricular administration of Aβ25-35 or a physiological saline solution. The test results on day 5 after administration of Aβ25-35 or a physiological saline solution were compared with the other test results on […] after administration (FIG. 2).

untreated mice = assay: Novel object recognition test in untreated mice; type: in vivo, mouse; details: Leu-Ile 15 μmol/Kg intraperitoneal; untreated mice (no Aβ25-35)
Procedure: (§2) A novel object recognition test was conducted for each of the above groups 3 to 5 days after intraventricular administration of Aβ25-35 or a physiological saline solution. The test results on day 5 after administration of Aβ25-35 or a physiological saline solution were compared with the other test results on […] after administration (FIG. 3). Furthermore, Leu-Ile (15 μmol/Kg) was intraperitoneally administered to untreated mice and then the mice were subjected to a novel object recognition test similar to that conducted for the above test groups.

[2] = tested on: Alzheimer's disease mouse model subjected to intraventricular injection of Aβ; assay: Novel object recognition test, intraperitoneal administration, Alzheimer's disease mouse model subjected to intraventricular injection of Aβ25-35; type: in vivo; details: day 5 after Aβ25-35, ICR mice, FIG. 3
Procedure: as §1, with “cerebral ventricle and then” for “cerebral ventricle, following which it was”, “20-22 g,” for “20-22 g (7 weeks old),”, “into 5” for “into 4”, “solution was administered instead of Aβ25-35 to the cerebral ventricle of a control group. A physiological saline solution;” for “solution”
The Alzheimer's disease model control group, the Leu-Ile […] administrated group, the Leu-Ile 15 μmol/Kg administrated group, and an Leu-Ile 75 μmol/Kg administrated group were separately subjected to the experiment.
Specifically, the Leu-Ile 7.5 μmol/Kg administrated group, the Leu-Ile 15 μmol/Kg administrated group, and the Leu-Ile 75 μmol/Kg administrated group were subjected to intraperitoneal administration of Leu-Ile (7.5 μmol/Kg), Leu-Ile (15 μmol/Kg), and Leu-Ile (75 μmol/Kg), respectively, immediately after administration of Aβ25-35.
as §2

## Leu-Ile
[1]; Leu-Ile 7.5 μmol/Kg oral
  recognition indices (novel object recognition test): decreased recognition indices were not confirmed
[1]; Leu-Ile 75 μmol/Kg oral
  recognition indices (novel object recognition test): decreased recognition indices were not confirmed
Untreated mice
  effects of improving memory (novel object recognition test): effects of improving memory were not observed
[2]; Leu-Ile 1.5 μmol/Kg intraperitoneal
  recognition indices (novel object recognition test): decreased recognition indices were not observed
[2]; Leu-Ile 15 μmol/Kg intraperitoneal
  recognition indices (novel object recognition test): decreased recognition indices were not observed
[2]; Leu-Ile 75 μmol/Kg intraperitoneal
  recognition indices (novel object recognition test): decreased recognition indices were not observed
